Structure (SMILES) | melting point
CCCc1nc2c(N)nc3cc(OCCC4CCN(C(=O)OC(C)(C)C)CC4)ccc3c2n1CC(C)C | 196 to 200 °C
CS(=O)(=O)N1C[C@H](S)C[C@H]1COc1ccccc1 | 78 to 79 °C
COc1cc(OC)nc(-n2nc(C)oc2=O)n1 | 158 °C
CC(=O)N(C)CC(C)c1ccncc1 (centres undefined) | 83 to 88 °C
CN(N=Cc1ccc(Br)cc1)C(=O)c1[nH]c2ccccc2c1-c1ccccc1 | 210 to 212 °C
CN(C(N)=O)C1CCCc2sccc21 (centres undefined) | 152 to 154 °C
O=C(Nc1ccc2c3c(oc2c1)CCC(O)C3O)c1c(Cl)cccc1Cl (centres undefined) | 206 to 209 °C
CC(C)c1csc(COC(=O)NC(C(=O)NC(Cc2ccccc2)CC(O)C(Cc2ccccc2)NC(=O)OCc2cncs2)C(C)C)n1 (centres undefined) | 62 to 64 °C
CC(Nc1nc2ccc(Cl)cc2cc1C(=O)O)C(=O)O (centres undefined) | 178 to 190 °C
CCOC(=O)Cn1c(=O)c(=O)[nH]c2cc(C(F)(F)F)c(-n3c(C)ccc3C)cc21 | 262 to 263 °C
CCOC(=O)NC1Cc2ccccc2C1Nc1ccc(OC)cc1CO (centres undefined) | 142 to 144 °C
O=C1CCC(c2ccc(Cl)c(Cl)c2)c2ccccc21 (centres undefined) | 99 to 101 °C
O=C1NC(=S)NC(=O)C1c1ccccc1F | > 240 °C
O=c1c(Cl)c(OCc2ccc(F)cc2F)ccn1Cc1ccc2[nH]ccc2c1 | 152 to 153 °C
CC(C#N)(Sc1nc2ccccc2s1)c1ccc(C(=O)c2cccs2)cc1 (centres undefined) | 104 to 107 °C
CCOC(=O)NNc1cc(C)c(-c2cccc(C#N)c2)nn1 | 189 to 190 °C
CC(C)c1cccc(N2CC(=O)NC(=O)N2)c1 | 130 to 132 °C
C=CCOc1ccc(CC(=O)O)cc1 | 61 to 62 °C
CNc1cccc(OC)c1N | 60 to 61 °C
COC(C)CC(=O)NC1CCC(CCN2CCN(c3nccc4c3OCC4)CC2)CC1 (racemic) | 168 °C
CC(C)(C)C(=O)OCN1C(=O)NC2(C1=O)C(=O)N(Cc1ccc(Br)cc1F)c1ccccc12 (centres undefined) | 220 to 222 °C
C#CCN1C(=O)COc2cc(F)c(N)cc21 | 132 to 134 °C
CCOP(=O)(Cc1ccc(NC(=O)[C@H]2Cc3cc4c(cc3C(=O)[C@H](C)S2)OCO4)cc1)OCC | 181 to 182 °C
Fc1ccc(C(F)(F)C(F)(F)c2ccccc2)c(Br)c1 | 47 to 48 °C
COc1cc(Br)c(C(C)=NOCc2ccc([N+](=O)[O-])cc2)cc1O | 137 to 138 °C

Structure (SMILES) | melting point
C=CCN(CC=C)c1nc(N)n2oc(=O)nc2n1 | 211 to 213 °C
CNc1nc(-c2ccccc2)c(-c2nc3ccccc3c(=O)n2-c2ccc(C)cc2)s1 | 192 to 193 °C
CCOCCO[C@@H]1c2ccn3c(C)c(C)nc3c2N[C@H](c2ccccc2)[C@H]1OC(=O)OCCCC(Cl)CC (some centres undefined) | 124 °C
Clc1ccc(Nc2cncc(-n3cccn3)n2)cc1 | 155 to 157 °C
COc1c(O)cc2oc(-c3ccccc3)cc(=O)c2c1O | 203 to 204 °C
CCn1ccc(C(=O)c2sc(NC(=O)c3ccncc3)nc2-c2ccco2)cc1=O | 277 to 281 °C
Cn1cccc1C(=O)CS(C)=O (centres undefined) | 74 to 76 °C
O=C(O)CCSCC(=O)c1cc2[nH]c(=O)[nH]c2cc1Cl | 186 to 187 °C
CC(C(=O)N(c1ccccc1)c1ccccc1)N1C(=O)c2ccccc2C1=O (racemic) | 89 °C
O=[N+]([O-])c1cnn(-c2c(Cl)cc(C(F)(F)F)cc2Cl)c1Cl | 80 to 84 °C
CCC(=O)OCc1c2ccccc2cc2ccccc12 | 79 to 80 °C
N#Cc1sc2ccc(Br)cc2c1-c1ccccc1 | 145 to 146 °C
CC(O)(C#Cc1ccc(C(=O)c2ccccc2)cc1)C(F)(F)F (centres undefined) | 94.5 to 96 °C
Ic1ccc(SSc2ccc(I)c3ccccc23)c2ccccc12 | 129 to 131 °C
O=[N+]([O-])c1cccc(OCCc2c[nH]cn2)c1 | 174 to 178 °C
CC(=CC(=O)O)C(=O)NN | 281 to 284 °C
CCc1nc2c(C)cc(C)nc2n1Cc1ccc(-c2ccccc2S(=O)(=O)Nc2onc(C)c2C)c(CN2CCC(C)(C)C2=O)c1 | 95 to 104 °C
CCCCCCCCCCCCc1csc(-c2c(Cl)c(Cl)c(-c3cc(CCCCCCCCCCCC)cs3)c3nsnc23)c1 | 79 to 80 °C
CC(=O)Nc1nc(CN2CCN(C(c3ccccc3)c3ccccc3)CC2)cs1 | 178 to 179 °C
O=Cc1c(Br)ccc2cc3c(cc12)OCO3 | 165 to 166 °C
O=c1c2cc(O)ccc2nc(C(S)c2ncnc3[nH]cnc23)n1-c1ccccc1Cl (centres undefined) | 186 to 214 °C
CCCC(C1CCCCC1)n1cncc1C(=O)O (centres undefined) | 202 °C
Cc1c(NC(=O)CC(C)(C)C)c(C)c2c(c1C(=O)O)OCC2c1ccc(C(C)C)cc1 (centres undefined) | 194 to 195 °C
CNc1nc(-c2cc(F)cc(F)c2)nc2nc(-c3ccco3)nn12 | 231 to 234 °C
N#CC(c1ccccc1)C1CCN(c2ccc([N+](=O)[O-])cc2)CC1 (centres undefined) | 118 °C

Structure (SMILES) | melting point
Cc1nc(C(F)(F)F)ccc1C(=O)C1=C(Sc2ccccc2)CCCC1=O | 124 to 125 °C
CCOC(=O)CSc1n[nH]c(=S)[nH]1 | 134 to 136 °C
C=Cc1cc(C=Cc2cc(C(C)(C)C)cc(C(C)(C)C)c2)cc(C=Cc2cc(C(C)(C)C)cc(C(C)(C)C)c2)c1 | 143 to 145 °C
CCC(C)NC1=NS(=O)(=O)c2cc(C(F)(F)F)ccc2N1 (centres undefined) | 234 to 236 °C
COc1ccc(Sc2c(O)c3c(Cl)cc(Cl)cc3[nH]c2=O)cc1 | 280 to 282 °C
O=C(Nc1cc(Cl)ccc1OCc1nnn[nH]1)c1cc(-c2ccc(Cl)cc2)oc1C(F)(F)F | 227 to 236 °C
CNC(=O)N1CCc2nc(N)sc2C1 | 202 °C
CNc1sc(-c2cccnc2)nc1C(F)(F)F | 152 to 157 °C
CCOC(=O)C(C#N)(CCCN(C)CCc1cccc(C(=O)OC)c1)c1ccc(OC)c(OC)c1 (centres undefined) | 89 to 91 °C
CC(=O)Oc1cc(C)ccc1C1CCN(CCCCNC(=O)c2ccc(-c3ccc(C#N)cc3)cc2)CC1 | 128 to 130 °C
Cn1ncnc1COc1nn2c(-c3ccc(F)cc3)nncc2c1C(C)(C)C | 197 °C
CN(C)CCSc1ccc2nccn2n1 | 52 to 54 °C
O=C(c1c(Cl)cccc1Cl)P(=O)(C(=O)c1c(Cl)cccc1Cl)c1ccccc1 | 194 °C
O=C(O)c1ccccc1Nc1ccncc1 | 275 to 280 °C
Cc1ccc(S(=O)(=O)c2ccc3c(c2)CCCC3)cc1 | 130 to 132 °C
CCNc1cc(-c2c[nH]c(C)n2)ccn1 | 214 to 216 °C
CC(=Cc1ccc(-c2ccc(Cl)cc2)cc1)[N+](=O)[O-] | 114 °C
COc1ccc(Cl)cc1NC(=O)[C@H]1[C@H](c2ccc(Br)cc2)C1(C)C (relative stereo) | 170 to 172 °C
CCOC(=O)C(OCc1ccc(-c2ccc(Cl)cc2)cc1)c1ccccc1 (centres undefined) | 50 to 51 °C
CC(C)n1cncc1CO | 83 to 84 °C
COCCn1cc(C=O)c(-c2ccc([N+](=O)[O-])o2)n1 | 137 to 138 °C
CC(C)(C)Oc1cccc(Cl)c1C(=O)O | 117 to 119 °C
O=C1COC(=O)C(Cc2ccccc2)O1 (centres undefined) | 64 to 65 °C
Cc1ccnc(Cl)c1C(N)=O | 168 to 170 °C

Source: a melting point compilation (Tetko et al.; mined from patent text by program, amines drawn as free bases though some values may be those of a salt)
